According to US20090012103A1, “SUBSTITUTED HETEROCYCLIC COMPOUNDS” (priority 2007, published 2009):

Target: wild-type human cardiac sodium channel, hNav1.5 (Homo sapiens, UniProt Q14524)
Assay: Late INa screening assay (late sodium current, PatchXpress whole cell patch clamp)
Type: cell-based
Conditions: compound at 10 μM; read-out: Late INa % blk
Protocol: The late sodium current (Late INa) and peak sodium current (Peak INa) assays are performed on an automated electrophysiology platform, PatchXpress 7000A (MDS Analytical Technologies, Sunnyvale, Calif.), which uses the whole cell patch clamp technique to measure currents through the cell membrane of up to 16 cells at a time. The assay uses an HEK293 (human embryonic kidney) cell line heterologously expressing the wild-type human cardiac sodium channel, hNav1.5, purchased from Millipore (Billerica, Mass.). No beta subunits were coexpressed with the Na channel alpha subunit. […] Experiments are carried out at 24-27° C.
For both the Late INa and Peak INa assays, series resistance compensation is set to 50% and whole-cell compensation is performed automatically. […] Currents through open sodium channels are automatically recorded and stored in the DataXpress2 database (MDS Analytical Technologies, Sunnyvale, Calif.). Analysis is performed using DataXpress2 analysis software and data are compiled in Excel.
Compound stocks are routinely made in glass vials to 10 mM in dimethyl sulfoxide (DMSO). In some cases, when compounds are not soluble in DMSO, they are made in 100% ethanol. Stocks are sonicated as necessary. The extracellular solution for screening Late INa is composed of: 140 mM NaCl, 4 mM KCl, 1.8 mM CaCl2, 0.75 mM MgCl2, and 5 mM HEPES with pH adjusted to 7.4 using NaOH. The extracellular solution for screening Peak INa is composed of: 20 mM NaCl, 120 mM N-methyl-D glucamine, 4 mM KCl, 1.8 mM CaCl2, 0.75 mM MgCl2, and 5 mM HEPES with pH adjusted to 7.4 using HCl. The intracellular solution used to perfuse the inside of the cells for both the Late INa and Peak INa assays contains: 120 mM CsF, 20 mM CsCl, 5 mM EGTA, 5 mM HEPES and pH adjusted to 7.4 with CsOH. Compounds are diluted in extracellular solution to 10 μM in glass vials and then transferred to glass well plates before robotic addition to the cells. The 0 Na extracellular solution used at the end of each experiment for the Late INa and Peak INa assays to measure baseline current contains: 140 mM N-methyl-D-glucamine; 4 mM KCl; 1.8 mM CaCl2; 0.75 mM MgCl2; 5 mM HEPES and pH was adjusted to 7.4 with HCl.
For the Late INa assay, sodium channels are activated every 10 seconds (0.1 Hz) by depolarizing the cell membrane to −20 mV for 250 milliseconds (ms) from a holding potential of −120 mV.
All compounds are tested to determine their activity in blocking the late sodium current. Late INa current is generated by adding 10 μM Tefluthrin (pyrethroid) to the extracellular solution while recording Na currents. […] For some experiments, 50 nM ATX II (sea anemone toxin), another late INa activator, was used to generate the late component. […] Baseline current in the absence of Na^+ ions is measured at the end of each experiment (after two additions of 0 Na solution-see above) and is used to calculate the percent block by compound.

Chain of wild-type human cardiac sodium channel, hNav1.5 (Q14524 whole entry): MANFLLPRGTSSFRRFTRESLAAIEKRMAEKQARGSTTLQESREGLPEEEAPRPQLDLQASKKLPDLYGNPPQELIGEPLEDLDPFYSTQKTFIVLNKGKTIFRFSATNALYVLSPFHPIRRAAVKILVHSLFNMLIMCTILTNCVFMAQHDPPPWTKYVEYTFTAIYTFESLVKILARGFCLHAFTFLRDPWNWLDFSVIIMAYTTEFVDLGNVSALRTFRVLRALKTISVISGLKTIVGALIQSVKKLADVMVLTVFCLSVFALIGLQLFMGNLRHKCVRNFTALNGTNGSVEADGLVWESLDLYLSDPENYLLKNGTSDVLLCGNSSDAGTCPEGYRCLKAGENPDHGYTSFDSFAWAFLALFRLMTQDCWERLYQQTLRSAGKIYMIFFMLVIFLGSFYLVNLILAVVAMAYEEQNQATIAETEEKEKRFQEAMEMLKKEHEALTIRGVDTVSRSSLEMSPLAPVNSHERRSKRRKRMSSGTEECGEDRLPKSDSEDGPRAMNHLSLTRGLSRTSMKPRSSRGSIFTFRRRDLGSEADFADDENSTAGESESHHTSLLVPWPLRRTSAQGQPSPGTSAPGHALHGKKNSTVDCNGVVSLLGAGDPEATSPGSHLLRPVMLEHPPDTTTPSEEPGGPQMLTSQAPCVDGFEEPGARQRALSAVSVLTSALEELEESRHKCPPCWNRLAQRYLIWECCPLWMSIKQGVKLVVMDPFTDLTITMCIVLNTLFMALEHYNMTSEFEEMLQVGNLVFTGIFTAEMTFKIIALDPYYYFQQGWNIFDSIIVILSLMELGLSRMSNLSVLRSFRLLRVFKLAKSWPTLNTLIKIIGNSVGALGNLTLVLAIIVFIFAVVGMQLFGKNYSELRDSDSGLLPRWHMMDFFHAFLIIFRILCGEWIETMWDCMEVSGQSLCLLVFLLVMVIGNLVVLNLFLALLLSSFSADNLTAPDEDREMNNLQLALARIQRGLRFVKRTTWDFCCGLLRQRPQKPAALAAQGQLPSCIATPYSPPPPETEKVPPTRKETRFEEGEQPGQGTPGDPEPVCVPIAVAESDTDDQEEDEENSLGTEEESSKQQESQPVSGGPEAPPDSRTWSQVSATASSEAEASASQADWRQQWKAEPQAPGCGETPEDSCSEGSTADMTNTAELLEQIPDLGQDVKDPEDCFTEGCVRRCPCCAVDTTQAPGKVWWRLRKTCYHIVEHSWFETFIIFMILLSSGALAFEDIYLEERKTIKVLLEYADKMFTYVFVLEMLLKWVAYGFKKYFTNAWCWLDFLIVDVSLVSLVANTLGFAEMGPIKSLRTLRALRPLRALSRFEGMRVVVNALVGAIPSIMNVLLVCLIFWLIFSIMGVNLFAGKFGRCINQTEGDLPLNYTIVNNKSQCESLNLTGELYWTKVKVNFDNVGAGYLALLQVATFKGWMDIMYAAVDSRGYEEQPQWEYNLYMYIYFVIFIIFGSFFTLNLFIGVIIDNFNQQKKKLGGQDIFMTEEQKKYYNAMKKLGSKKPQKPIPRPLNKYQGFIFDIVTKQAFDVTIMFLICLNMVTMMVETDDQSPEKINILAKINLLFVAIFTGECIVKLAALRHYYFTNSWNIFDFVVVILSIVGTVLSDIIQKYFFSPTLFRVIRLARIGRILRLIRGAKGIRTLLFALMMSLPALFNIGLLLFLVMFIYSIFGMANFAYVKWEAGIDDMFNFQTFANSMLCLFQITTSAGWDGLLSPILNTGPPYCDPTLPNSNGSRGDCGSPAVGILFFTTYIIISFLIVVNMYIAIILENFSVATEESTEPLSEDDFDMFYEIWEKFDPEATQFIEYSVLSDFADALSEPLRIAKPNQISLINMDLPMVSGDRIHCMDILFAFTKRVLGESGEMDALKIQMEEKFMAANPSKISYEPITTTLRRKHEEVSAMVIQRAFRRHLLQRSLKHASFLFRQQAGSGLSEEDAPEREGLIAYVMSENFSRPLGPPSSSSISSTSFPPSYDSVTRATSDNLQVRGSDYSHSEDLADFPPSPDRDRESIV

SMILES | inhibition at 10 µM [%]
CC1=C(C(=O)OCc2ccccc2)C(c2ccccc2Br)C2=C(CCCC2=O)N1 (stereo not shown) [PT-329, benzyl 4-(2-bromophenyl)-2-methyl-5-oxo-1,4,5,6,7,8-hexahydroquinoline-3-carboxylate] | 54.9
CC1=C(C(=O)OCc2ccccc2)C(c2cc3ccccc3s2)C2=C(CCCC2=O)N1 (stereo not shown) [PT-335, benzyl 4-(benzo[b]thiophen-2-yl)-2-methyl-5-oxo-1,4,5,6,7,8-hexahydroquinoline-3-carboxylate] | 58.1
CCOC(=O)c1ccc(COc2ccccc2C2C(C(=O)OC)=C(C)Nc3nnnn32)cc1 (stereo not shown) [PT-516, methyl 7-(2-(4-(ethoxycarbonyl)benzyloxy)phenyl)-5-methyl-4,7-dihydrotetrazolo[1,5-a]pyrimidine-6-carboxylate] | 20.2
O=C1OCC(O)=C1C(C1=C(O)COC1=O)c1cccc2ccccc12 [PT-222, 3,3′-(naphthalen-1-ylmethylene)bis(4-hydroxyfuran-2(5H)-one)] | 15.8
CC1=C(C(=O)OC(C)C)C(c2cccc3ccccc23)C2=C(CCCC2=O)N1 (stereo not shown) [PT-158, isopropyl 2-methyl-4-(naphthalen-1-yl)-5-oxo-1,4,5,6,7,8-hexahydroquinoline-3-carboxylate] | 38.7
CC1=C(C(=O)OCc2ccccc2)C(c2ccc3ccccc3c2)c2cn[nH]c2N1 (stereo not shown) [PT-368, benzyl 6-methyl-4-(naphthalen-2-yl)-4,7-dihydro-1H-pyrazolo[3,4-b]pyridine-5-carboxylate] | -4.2
COc1cccc(-c2ccccc2[C@@H]2C(C(=O)OCc3ccccc3)=C(C)Nc3nnnn32)c1 [PT-241, (R)-benzyl 7-(3′-methoxybiphenyl-2-yl)-5-methyl-4,7-dihydrotetrazolo[1,5-a]pyrimidine-6-carboxylate] | 77.1
CCOC(=O)C1=C(C)NC(C)=C(C(=O)OCC)C1c1ccc(-c2ccccc2C(F)(F)F)o1 [PT-119, diethyl 2,6-dimethyl-4-(5-(2-(trifluoromethyl)phenyl)furan-2-yl)-1,4-dihydropyridine-3,5-dicarboxylate] | 3.8
CCOC(=O)C1=C(CC)Nc2nnnn2C1c1ccc2ccccc2c1 (stereo not shown) [PT-011, ethyl 5-ethyl-7-(naphthalen-2-yl)-4,7-dihydrotetrazolo[1,5-a]pyrimidine-6-carboxylate] | 37.7
CCOC(=O)C1=C(C)Nc2nnnn2C1c1ccccc1-c1cccc(C#N)c1 (stereo not shown) [PT-499, ethyl 7-(3′-cyanobiphenyl-2-yl)-5-methyl-4,7-dihydrotetrazolo[1,5-a]pyrimidine-6-carboxylate] | 27.7
CC1=C(C(=O)OCc2ccccc2)C(c2ccccc2-c2cccc(C(=O)O)c2)n2nnnc2N1 (stereo not shown) [PT-253, 2′-(6-(benzyloxycarbonyl)-5-methyl-4,7-dihydrotetrazolo[1,5-a]pyrimidin-7-yl)biphenyl-3-carboxylic acid] | 9.1
COCCOc1ccc(C2C(C(=O)OCc3ccccc3)=C(C)Nc3nnnn32)cc1 (stereo not shown) [PT-406, benzyl 7-(4-(2-methoxyethoxy)phenyl)-5-methyl-4,7-dihydrotetrazolo[1,5-a]pyrimidine-6-carboxylate] | 20.3
CCOC(=O)C1=C(C)Nc2nnnn2C1c1ccc(N(C)C)cc1[N+](=O)[O-] (stereo not shown) [PT-501, ethyl 7-(4-(dimethylamino)-2-nitrophenyl)-5-methyl-4,7-dihydrotetrazolo[1,5-a]pyrimidine-6-carboxylate] | 2.5
COC(=O)C1=C(C)Nc2nnnn2C1c1ccc(-c2ccc(OC)cc2)s1 (stereo not shown) [PT-521, methyl 7-(5-(4-methoxyphenyl)thiophen-2-yl)-5-methyl-4,7-dihydrotetrazolo[1,5-a]pyrimidine-6-carboxylate] | 37.5
COc1ccc2c(C3C(C(=O)OCc4ccccc4)=C(C)Nc4nnnn43)ccc(OC)c2c1 (stereo not shown) [PT-033, benzyl 7-(4,6-dimethoxynaphthalen-1-yl)-5-methyl-4,7-dihydrotetrazolo[1,5-a]pyrimidine-6-carboxylate] | 23.3
CC1=C(C(=O)OCc2ccccc2)C(c2cccc3ncccc23)n2nnnc2N1 (stereo not shown) [PT-038, benzyl 5-methyl-7-(quinolin-5-yl)-4,7-dihydrotetrazolo[1,5-a]pyrimidine-6-carboxylate] | 11.9

SMILES | inhibition at 10 µM [%]
CC1=C(C(=O)OCc2ccccc2)C(c2ccccc2Br)c2cn[nH]c2N1 (stereo not shown) [PT-330, benzyl 4-(2-bromophenyl)-6-methyl-4,7-dihydro-1H-pyrazolo[3,4-b]pyridine-5-carboxylate] | 21.2
CC1=C(C(=O)OCc2ccccc2)C(c2ccccc2-c2ccccc2C)n2nnnc2N1 (stereo not shown) [PT-344, benzyl 5-methyl-7-(2′-methylbiphenyl-2-yl)-4,7-dihydrotetrazolo[1,5-a]pyrimidine-6-carboxylate] | 44.6
CCOC(=O)C1=C(C)N(C)c2nnnn2C1c1cccc2ccccc12 (stereo not shown) [PT-015, ethyl 4,5-dimethyl-7-(naphthalen-1-yl)-4,7-dihydrotetrazolo[1,5-a]pyrimidine-6-carboxylate] | 27.2
CC1=C(C(=O)OCc2ccccc2)C(c2ccc3ccccc3n2)n2nnnc2N1 (stereo not shown) [PT-196, benzyl 5-methyl-7-(quinolin-2-yl)-4,7-dihydrotetrazolo[1,5-a]pyrimidine-6-carboxylate] | 32.5
CC1=C(C(=O)OCc2ccccc2)C(c2ccc(SC(F)(F)F)cc2)n2nnnc2N1 (stereo not shown) [PT-359, benzyl 5-methyl-7-(4-(trifluoromethylthio)phenyl)-4,7-dihydrotetrazolo[1,5-a]pyrimidine-6-carboxylate] | 21.3
CCOC(=O)C1=C(C)NC(C)=C(C(=O)OCC)C1c1ccc([N+](=O)[O-])cc1OC [PT-433, diethyl 4-(2-methoxy-4-nitrophenyl)-2,6-dimethyl-1,4-dihydropyridine-3,5-dicarboxylate] | 30.3
CCOC(=O)C1=C(C)Nc2nnnn2C1c1ccc(OC)c2ccccc12 (stereo not shown) [PT-504, ethyl 7-(4-methoxynaphthalen-1-yl)-5-methyl-4,7-dihydrotetrazolo[1,5-a]pyrimidine-6-carboxylate] | 28.2
CC1=C(C(=O)OCc2ccccc2)C(c2cccs2)c2cn[nH]c2N1 (stereo not shown) [PT-370, benzyl 6-methyl-4-(thiophen-2-yl)-4,7-dihydro-1H-pyrazolo[3,4-b]pyridine-5-carboxylate] | 24.7
CC1=C(C(=O)OCc2ccc(OC(F)(F)F)cc2)C(c2cccc3ccccc23)n2nnnc2N1 (stereo not shown) [PT-052, 4-(trifluoromethoxy)benzyl 5-methyl-7-(naphthalen-1-yl)-4,7-dihydrotetrazolo[1,5-a]pyrimidine-6-carboxylate] | 9.1
CC1=C(C(=O)OC(C)(C)Cc2ccccc2)C(c2ccccc2Br)c2cn[nH]c2N1 (stereo not shown) [PT-263, 2-methyl-1-phenylpropan-2-yl 4-(2-bromophenyl)-6-methyl-4,7-dihydro-1H-pyrazolo[3,4-b]pyridine-5-carboxylate] | 38.8
CCOC(=O)C1=C(C)Nc2[nH]ncc2C1c1ccc(N(C)C)c2ccccc12 (stereo not shown) [PT-454, ethyl 4-(4-(dimethylamino)naphthalen-1-yl)-6-methyl-4,7-dihydro-1H-pyrazolo[3,4-b]pyridine-5-carboxylate] | 30.2
CC1=C(C(=O)O[C@@H](C)c2ccccc2)C(c2cc3ccccc3o2)n2nnnc2N1 (stereo partly drawn) [PT-058, (S)-1-phenylethyl 7-(benzofuran-2-yl)-5-methyl-4,7-dihydrotetrazolo[1,5-a]pyrimidine-6-carboxylate] | 71.4
COC(=O)C1=C(C)Nc2[nH]nc(C)c2C1c1nc(C)cs1 (stereo not shown) [PT-509, methyl 3,6-dimethyl-4-(4-methylthiazol-2-yl)-4,7-dihydro-1H-pyrazolo[3,4-b]pyridine-5-carboxylate] | 6.4
CC1=C(C(=O)OCc2ccccc2)C(c2ccc(Br)cc2F)n2nnnc2N1 (stereo not shown) [PT-416, benzyl 7-(4-bromo-2-fluorophenyl)-5-methyl-4,7-dihydrotetrazolo[1,5-a]pyrimidine-6-carboxylate] | 25.6
CCOC(=O)C1=C(C)N(CC(=O)O)c2nnnn2C1c1cccc2ccccc12 (stereo not shown) [PT-258, 2-(6-(ethoxycarbonyl)-5-methyl-7-(naphthalen-1-yl)tetrazolo[1,5-a]pyrimidin-4(7H)-yl)acetic acid] | 1.6
